{
  "source": "patent US20120302629A1",
  "about": "“BIOMARKERS FOR GOSSYPOL CHEMOTHERAPY AND METHODS OF TREATING DISEASE” (THE REGENTS OF THE UNIVERSITY OF MICHIGAN, priority 2009, published 2012)",
  "key": {"[1]": {"tested_on": "MEF Bax/Bak KO cells", "assay": "Apoptosis (Annexin V/PI flow cytometry) in MEF cells", "format": "cell-based", "settings": "all the concentrations tested", "protocol": "(§1) Cell Growth, Cell Death, and Apoptosis: Cell growth inhibition by (−)-gossypol was determined in a water-soluble tetrazolium (WST)-based assay, as described previously (Shangary et al., Proc. Natl. Acad. Sci. USA 105:3933 (2008)). Cell viability was determined by trypan blue due exclusion as described (Shangary et al., Proc. Natl. Acad. Sci. USA 105:3933 (2008)). Experiments were done in triplicate. To examine apoptosis, cells were stained with Annexin V and PI and analyzed by flow cytometery using an Annexin V-FITC staining kit (Roche Applied Science, Indianapolis, Ind.) according to manufacturer's instructions. Briefly, cells were treated and collected by centrifugation, washed with PBS once and then stained with annexinV-FITC and PI for 15 min at room temperature in the dark. Stained cells were analyzed in a FACS caliber flow cytometer. AnnexinV positive cells are considered as apoptotic cells."}, "[2]": {"tested_on": "Bcl-2 family proteins in 2LMP cells", "assay": "Western blot of whole cell lysates", "format": "cell-based, human", "settings": "cotreatment with (−)-gossypol (FIG. 26)", "protocol": "(§2) Western blot assay: Proteins were harvested in RIPA buffer, then electrophoresed on 4-20% gradient SDS-PAGE gels (Invitrogen, Grand Island, N.Y.) and transferred to PVDF membranes. The membranes were blocked in 5% milk and then incubated with specific primary antibody, followed by secondary antibody. The signals were visualized with the chemiluminescent HRP antibody detection reagent (Deville Scientific, Metuchen, N.J.)."}, "[3]": {"tested_on": "Bcl-2 family proteins in PC-3 cells", "assay": "Western blot of whole cell lysates", "format": "cell-based, human", "settings": "cotreatment with (−)-gossypol (FIG. 26)", "protocol": "as §2"}, "[4]": {"tested_on": "Noxa, Puma and Mcl-1 RNAs in 2LMP, PC-3, MDA-MB-436 and DU145 cells", "assay": "Taqman real-time PCR with actinomycin D cotreatment", "format": "cell-based, human", "settings": "cotreatment with (−)-gossypol 10 μm", "protocol": "Real-Time PCR: Total RNA was extracted by RNA miniprep kit (Sigma) from cells treated with or without of (−)-gossypol. cDNA was synthesized from 2 μg of RNA using cDNA reverse transcription kits (Applied Biosystems). Next, Taqman gene expression assays were performed using Noxa (Hs00560402_ml), Puma (Hs00248075_ml), Mcl-1 (Hs00172036_ml) gene specific primers/probe sets for real-time PCR in a ABI7900HT PCR machine. GAPDH (Hs99999905_ml) was used for normalization. Relative quantitation of mRNA was calculated by comparative cycle threshold (Ct) method."}, "[5]": {"tested_on": "2LMP cells", "assay": "Cell death by trypan blue dye exclusion", "format": "cell-based, human", "settings": "c-Myc siRNA, 24 h", "protocol": "as §1"}},
  "note": "Numbered stars: 1 amine (or outer) side, 2 acyl side, 3 side chain; on linkers, the order of the positions; unused ones are H or OH. Bridge positions count the residues as written; N and C are the ends. Square brackets hold non-standard residues; d marks the D form. Peptide text beside a SMILES is read from it. I, II: the chains in the order shown. Actinocin(9to1) = Cc1c2oc3c(C)ccc(C(=O)[*:1])c3nc-2c(C(=O)[*:2])c(N)c1=O; NMeV = CN[C@H](C(=O)O)C(C)C; Sar = CNCC(=O)O",
  "data": [
    {"smiles": "COc1cc([C@@H]2c3cc4c(cc3[C@@H](O[C@@H]3O[C@@H]5CO[C@@H](C)O[C@H]5[C@H](O)[C@H]3O)[C@H]3COC(=O)[C@H]23)OCO4)cc(OC)c1O", "note": "[VP-16, 4′-demethylepipodophyllotoxin 9-[4,6-0-(R)-ethylidene-(beta)-D-glucopyranoside], reference compound]", "values": [
      {"measurement": "induction of cell death in the MEF Bax/Bak double knock-out", "setting": "[1]", "result": "blocked"}
    ]},
    {"smiles": "Cc1c2oc3c(C)ccc(C(=O)N[C@@H]4C(=O)N[C@H](C(C)C)C(=O)N5CCC[C@H]5C(=O)N(C)CC(=O)N(C)[C@@H](C(C)C)C(=O)O[C@@H]4C)c3nc-2c(C(=O)N[C@@H]2C(=O)N[C@H](C(C)C)C(=O)N3CCC[C@H]3C(=O)N(C)CC(=O)N(C)[C@@H](C(C)C)C(=O)O[C@@H]2C)c(N)c1=O", "note": "[actinomycin D, reference compound] (I: T[dV]P[Sar][NMeV] / II: T[dV]P[Sar][NMeV]; ester I:1-I:C, II:1-II:C; linker I:N-II:N via Actinocin(9to1))", "values": [
      {"measurement": "(−)-gossypol-upregulated Noxa and Puma proteins under cotreatment", "setting": "[2]", "result": "significantly blocked"},
      {"measurement": "(−)-gossypol-upregulated Noxa and Puma proteins under cotreatment", "setting": "[3]", "result": "significantly blocked"},
      {"measurement": "upregulation of Noxa, Puma and Mcl-1 RNAs by (−)-gossypol under cotreatment", "setting": "[4]", "result": "completely blocks"}
    ]},
    {"smiles": "CC(C)C[C@H](NC(=O)[C@H](Cc1ccccc1)NC(=O)c1cnccn1)B(O)O", "note": "[bortezomib, reference compound]", "values": [
      {"measurement": "cell death upon knock-down of c-Myc", "setting": "[5]", "result": "blocked cell death"}
    ]}
  ]
}
